Experimental data from publication PMC6435570, “Zafirlukast Is a Dual Modulator of Human Soluble Epoxide Hydrolase and Peroxisome Proliferator-Activated Receptor γ” (Frontiers in Pharmacology, 2019).

Legend:
[1] = system: CysLT1R; conditions: Table 2 comparison column; no method, no reference given; cited from earlier work
[2] = target: T1, recombinant human sEH (Homo sapiens, UniProt P34913); test: Recombinant sEH activity (PHOME fluorescence assay); type: biochemical; conditions: PHOME 50 μM, 30 min preincubation at RT, read-out: sEH rec. IC50
T1 sequence (P34913 1-555): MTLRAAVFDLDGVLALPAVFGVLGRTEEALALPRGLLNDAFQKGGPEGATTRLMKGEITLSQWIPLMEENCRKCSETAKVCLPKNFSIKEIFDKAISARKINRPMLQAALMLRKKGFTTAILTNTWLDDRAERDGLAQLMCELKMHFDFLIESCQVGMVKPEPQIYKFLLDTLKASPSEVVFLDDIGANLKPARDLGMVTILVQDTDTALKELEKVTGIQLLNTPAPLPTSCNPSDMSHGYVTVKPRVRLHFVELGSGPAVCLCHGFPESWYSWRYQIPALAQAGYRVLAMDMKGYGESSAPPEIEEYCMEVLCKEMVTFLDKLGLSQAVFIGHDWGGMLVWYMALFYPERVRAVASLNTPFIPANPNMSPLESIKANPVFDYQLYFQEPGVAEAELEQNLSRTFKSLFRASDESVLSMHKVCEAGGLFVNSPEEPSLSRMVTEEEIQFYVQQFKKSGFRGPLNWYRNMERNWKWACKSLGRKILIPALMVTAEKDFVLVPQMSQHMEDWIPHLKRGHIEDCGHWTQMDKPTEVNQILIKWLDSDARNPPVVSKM
Procedure: For determination of IC50 values of recombinant human sEH a 96-well fluorescence-based assay system was used as described before ([Blöcher et al., 2016a]). In brief, non-fluorescent PHOME (3 phenylcyano-(6-methoxy-2-naphthalenyl)methyl ester 2-oxiraneacetic acid, Cayman Chemicals, Ann Arbor, MI, United States) was used as substrate, which is hydrolyzed by sEH to the fluorescent 6-methoxynaphthaldehyde ([Rau et al., 2006]). The formation of the fluorescent product was measured (λem = 330 nm, λex = 465 nm) by an Infinite F200 Pro plate reader (Tecan Group Ltd., Männedorf, Switzerland). For that purpose, 2 μg recombinant human sEH in 100 μl bis-Tris buffer (pH 7, 0.1 mg/mL BSA, 0.01% Triton-X 100) was applied per well. This protein solution was then incubated with different concentrations of the test compounds for 30 min at RT. After this, 10 μL of the substrate were added (final concentration 50 μM). The formation of 6-methoxynaphthaldehyde was monitored for 30 min. All concentrations were tested in triplicate wells.

[3] = target: T2, human PPARα ligand binding domain (Homo sapiens, UniProt Q07869); test: PPAR reporter gene assay (Gal4 hybrid, PPARα); type: cell-based; conditions: HEK-293T, reference GW7647 1 μM, tested up to 10 μM
T2 construct: expressed in transfected cells; host or cells: HEK-293T
T2 sequence (Q07869 239-466 limits assumed): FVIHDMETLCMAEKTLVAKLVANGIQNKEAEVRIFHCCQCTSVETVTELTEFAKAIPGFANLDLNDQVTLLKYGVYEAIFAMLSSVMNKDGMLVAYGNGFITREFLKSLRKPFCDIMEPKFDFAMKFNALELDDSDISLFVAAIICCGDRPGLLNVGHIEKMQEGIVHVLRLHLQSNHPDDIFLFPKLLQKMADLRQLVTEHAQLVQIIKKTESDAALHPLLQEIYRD
Procedure: (§2) HEK-293T cells were seeded in 96-well plates (2.5 × 10^4 cells/well) and were allowed to adhere overnight. Before transfection, medium was changed to Opti-MEM without supplements. Transient plasmid transfection was carried out using Lipofectamine LTX reagent (Invitrogen, Carlsbad, CA, United States) according to the manufacturer’s protocol with pFR-Luc (Stratagene, La Jolla, CA, United States), pRL-SV40 (Promega, Fitchburg, MA, United States) and pFA-CMV-PPAR-LBD ([Rau et al., 2006]). 5 h after transfection, medium was changed to Opti-MEM supplemented with penicillin (100 U/mL) and streptomycin (100 μg/mL), now additionally containing 0.1% DMSO and the respective test compound or 0.1% DMSO alone as untreated control. Each concentration was tested in triplicates and each experiment was repeated independently at least four times. Following overnight (12–16 h) incubation with the test compounds, cells were assayed for luciferase activity using the Dual-Glo^TM Luciferase Assay System (Promega, Fitchburg, MA, United States) according to the manufacturer’s protocol. Luminescence was measured with an Infinite M200 luminometer (Tecan Group Ltd., Männedorf, Switzerland). Normalization of transfection efficiency and cell growth was done by division of firefly luciferase data by renilla luciferase data and multiplying the value by 1000 resulting in relative light units (RLU). Fold activation was obtained by dividing the mean RLU of a test compound at a respective concentration by the mean RLU of untreated control. Relative activation was obtained by dividing the fold activation of a test compound at a respective concentration by the fold activation of the respective PPARα, γ or δ full agonist GW-7647, pioglitazone or L165,041 at 1 μM. EC50 and standard deviation were calculated with the mean relative activation values of at least four independent experiments by SigmaPlot 10.0 (Systat Software GmbH, Erkrath, Germany) using a four parameter logistic regression. […]

[4] = target: T3, human PPARδ ligand binding domain (Homo sapiens, UniProt Q03181); test: PPAR reporter gene assay (Gal4 hybrid, PPARδ); type: cell-based; conditions: HEK-293T, reference L165,041 1 μM, tested up to 10 μM
T3 construct: expressed in transfected cells; host or cells: HEK-293T
T3 sequence (Q03181 211-439 limits assumed): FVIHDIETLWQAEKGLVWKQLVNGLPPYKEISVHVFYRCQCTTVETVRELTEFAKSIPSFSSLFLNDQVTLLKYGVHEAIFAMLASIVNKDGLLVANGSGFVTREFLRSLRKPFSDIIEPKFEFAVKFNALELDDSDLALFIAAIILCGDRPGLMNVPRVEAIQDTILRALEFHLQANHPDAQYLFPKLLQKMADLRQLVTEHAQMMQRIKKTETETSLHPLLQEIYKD
Procedure: as §2

[5] = target: T4, sEH (HEP-G2) (Homo sapiens, UniProt P34913); test: sEH activity in HEP-G2 cell lysates (14(15)-EET-d11 to DHET-d11, LC-MS/MS); type: biochemical; conditions: HEP-G2 cell homogenate, (±)14(15)-EET-d11 substrate, DHET formation by LC-MS/MS
T4 construct: 1 μg of total cell homogenate diluted in 100 μl of PBS; endogenous in cells; host or cells: HEP-G2
T4 sequence (P34913 1-555): T1 sequence (P34913 1-555)
Procedure: Quantification of cellular sEH metabolic activity was performed as described by [Zha et al. (2014)]. For this, HEP-G2 cells were harvested, washed twice with PBS and sonicated in PBS for disruption of cell integrity. Then, 1 μg of total cell homogenate diluted in 100 μl of PBS containing 0.1 mg/ml BSA was incubated with the compounds or vehicle for 15 min at 37°C. After this, 25 ng (±)14(15)-EET-d11 (Cayman Chemical, Ann Arbor, MI, United States) were added per sample and the incubation was continued for additional 10 min at 37°C. A blank was performed using PBS (containing 0,1 mg/mL BSA). The reactions were stopped by adding 100 μL of ice cold methanol. After centrifugation (2000 rpm, 4°C, 5 min), supernatants were analyzed by LC-MS/MS and the amounts of (±)14(15)-EET-d11 and the corresponding (±)14(15)-DHET-d11 were determined.
14(15)-EET-d11 and 14(15)-DHET-d11 content of the extracted samples were analyzed employing liquid chromatography tandem mass spectroscopy (LC-MS/MS). The LC/MS-MS system comprised an API 5500 QTrap (Sciex, Darmstadt, Germany), equipped with a Turbo-V-source operating in negative ESI mode, an Agilent 1200 binary HPLC pump and degasser (Agilent, Waldbronn, Germany) and an HTC Pal autosampler (Chromtech, Idstein, Germany) fitted with a 25 μL LEAP syringe (Axel Semrau GmbH, Sprockhövel, Germany). High purity nitrogen for the mass spectrometer was produced by a NGM 22-LC/MS nitrogen generator (cmc Instruments, Eschborn, Germany). All substances were obtained from Cayman Chemical, Ann Arbor, MI, United States. Stock solutions with 2,500 ng/mL of both analytes were prepared in methanol. Working standards were obtained by further dilution with a concentration range of 0.1–250 ng/mL for 14(15)-EET-d11 and 14(15)-DHET-d11. Sample extraction was performed with liquid–liquid-extraction. Therefore, 150 μL of matrix homogenates were gently mixed with 20 μL of internal standard [14(15)-EET and 14(15)-DHET all with a concentration of 100 ng/ml in methanol], and were extracted twice with 600 μL of ethyl acetate. Samples for standard curve and quality control were prepared similarly, instead of 150 μL of matrix homogenates, 150 μL PBS were added. Further 20 μL methanol, 20 μL working standard and 20 μL internal standard were added. The organic phase was removed at a temperature of 45°C under a gentle stream of nitrogen. The residues were reconstituted with 50 μL of methanol/water/(50:50, v/v), centrifuged for 2 min at 10,000 g and then transferred to glass vials (Macherey-Nagel, Düren, Germany) prior to injection into the LC-MS/MS system. For the chromatographic separation a Gemini NX C18 column and pre-column were used (150 mm × 2 mm i.d., 5 μm particle size and 110 Å pore size from Phenomenex, Aschaffenburg, Germany). A linear gradient was employed at a flow rate of 0.5 mL/min mobile phase with a total run time of 17.5 min. Mobile phase was A water/ammonia (100:0.05, v/v) and B acetonitrile/ammonia (100:0.05, v/v). The gradient started from 85% A to 10% within 12 min. This was held for 1 min at 10% A. Within 0.5 min the mobile phase shifted back to 85% A and was held for 3.5 min to equilibrate the column for the next sample. The injection volume of samples was 20 μL. Quantification was performed with Analyst Software V 1.5.1 (Sciex, Darmstadt, Germany) employing the internal standard method (isotope- dilution mass spectrometry). Ratios of analyte peak area and internal standard area (y-axis) were plotted against concentration (x-axis) and calibration curves were calculated by least square regression with 1/concentration^2 weighting.

[6] = system: PPARγ2 phosphorylation at serine 273; test: TNFα triggered PPARγ Ser273 phosphorylation in 3T3-L1 adipocytes (Western Blot); type: cell-based, murine; conditions: zafirlukast 1 or 10 μM or rosiglitazone 2 μM for 45 min, then TNFα 50 ng/mL 30 min
Procedure: Total 3T3-L1 or HEP-G2 cell lysates were prepared in lysis buffer (20 mM Tris-HCl, pH 7.4, 150 mM NaCl, 2 mM EDTA, 1% Triton X-100, 0.5% NP-40) supplemented with protease and phosphatase inhibitors (PhosSTOP^TM + cOmplete^TM Mini, Roche Diagnostics GmbH, Mannheim, Germany). Protein concentrations were quantified using the Pierce^TM BCA Protein Assay Kit (Thermo Scientific, Waltham, MA, United States). Total protein (30 μg/lane) was separated by SDS-polyacrylamide gel electrophoresis and transferred to nitrocellulose membranes (GE Healthcare Life Sciences, Little Chalfont, United Kingdom). Membranes were blocked with Odyssey blocking reagent (LI-COR Biosciences, Bad Homburg, Germany) for 1 h at room temperature. […] Afterwards, membranes were washed and incubated with fluorescence conjugated secondary antibodies (IRDye, LI-COR Biosciences, Bad Homburg, Germany). […] The density of the immune reactive bands was analyzed using the Image Studio 5.2 software (LI-COR Biosciences, Bad Homburg, Germany).
We induced this post-translational modification by short-term treatment of the differentiated cells with the cytokine TNFα, generating a pro-inflammatory milieu. […] For this, we used an assay system in which the recruitment of the fluorescence-tagged PPARγ coactivator CBP to the PPARγ-LBD was assessed by time-resolved FRET technique in presence and absence of rosiglitazone.

[7] = system: 3T3-L1 cells; test: 3T3-L1 adipocyte differentiation, Oil Red O lipid accumulation; type: cell-based, murine; conditions: differentiation cocktail plus zafirlukast or montelukast 1, 5, 10 μM or rosiglitazone 2 μM; 14 days
Procedure: (§1) 3T3-L1 cells were differentiated into adipocytes for 14 days according to the protocol of [Zebisch et al. (2012)]. For this, cells were seeded in 6-well plates ([…]) and differentiation was induced after 48 h by addition of a differentiation cocktail containing 1 μg/mL insulin, 0.25 μM dexamethasone and 0.5 mM isobutylmethylxanthine (IBMX) in DMEM supplemented with 10% FCS and 1% PS. […] After 2 days, medium was replaced by DMEM supplemented with 10% FCS, 1% PS and 1 μg/mL insulin for 2 more days. Afterwards, cells were kept for lipid droplet accumulation in DMEM containing 10% FCS and 1% PS until day 15. Media were replaced every other day.
Differentiated 3T3-L1 cells were washed with PBS and subsequently fixed for 60 min with formaldehyde (4% in PBS). Afterwards, cells were thoroughly rinsed with 60% isopropanol and incubated with Oil Red O solution (0.3% in 60% isopropanol) for 120 min. This was followed by the removal of the staining solution and thorough rinsing of the cell layer with ultrapure water. Finally, the plates were dried and pictures of the stained cell layers were taken.
For quantification of the accumulated dye, 3T3-L1 cells were seeded in 24-well plates (0.55 × 10^5/well) instead of 6-wells and the differentiation was carried out as described in the section ‘Adipocyte differentiation’. After 14 days of differentiation, cells were fixed and stained as described above. […] 100 μl of dye extract were transferred to a 96-well plate and absorbance was measured (λabs = 510 nm) by an Infinite F200 plate reader (Tecan Group Ltd., Männedorf, Switzerland). […]
As master regulator of adipocyte differentiation in men and mice, PPARγ plays a crucial role in the cell’s commitment to the adipocyte lineage by controlling important functions such as intracellular biosynthesis, transport and accumulation of lipids. […] Upon differentiation, different parameters such as lipid accumulation and PPARγ target gene expression can be assessed to investigate the PPARγ activating potential of the compounds of interest. […]

[8] = system: PPARγ, FABP-4 and CD36 protein in 3T3-L1 adipocytes; test: Protein expression in differentiated 3T3-L1 adipocytes (Western Blot); type: cell-based, murine; conditions: rosiglitazone 2 μM
Procedure: as §1
Total 3T3-L1 or HEP-G2 cell lysates were prepared in lysis buffer (20 mM Tris-HCl, pH 7.4, 150 mM NaCl, 2 mM EDTA, 1% Triton X-100, 0.5% NP-40) supplemented with protease and phosphatase inhibitors (PhosSTOP^TM + cOmplete^TM Mini, Roche Diagnostics GmbH, Mannheim, Germany). Protein concentrations were quantified using the Pierce^TM BCA Protein Assay Kit (Thermo Scientific, Waltham, MA, United States). Total protein (30 μg/lane) was separated by SDS-polyacrylamide gel electrophoresis and transferred to nitrocellulose membranes (GE Healthcare Life Sciences, Little Chalfont, United Kingdom). Membranes were blocked with Odyssey blocking reagent (LI-COR Biosciences, Bad Homburg, Germany) for 1 h at room temperature. Ensuing, membranes were incubated with antibodies against CD36 (EPR6573, Abcam, Cambridge, United Kingdom), PPARγ (E-8, Santa Cruz Biotechnology, Heidelberg, Germany), FABP-4 (C-15, Santa Cruz Biotechnology, Heidelberg, Germany) or PPARγ Ser273 (Bioss Antibodies Inc., Woburn, MA, United States) overnight at 4°C. Afterwards, membranes were washed and incubated with fluorescence conjugated secondary antibodies (IRDye, LI-COR Biosciences, Bad Homburg, Germany). Protein antibody complexes were visualized on the Odyssey Infrared Imaging System (LI-COR Biosciences, Bad Homburg, Germany). β-actin (I-19, goat, polyclonal, Santa Cruz Biotechnology, Heidelberg, Germany) was used as loading control. The density of the immune reactive bands was analyzed using the Image Studio 5.2 software (LI-COR Biosciences, Bad Homburg, Germany).
As master regulator of adipocyte differentiation in men and mice, PPARγ plays a crucial role in the cell’s commitment to the adipocyte lineage by controlling important functions such as intracellular biosynthesis, transport and accumulation of lipids. Murine 3T3-L1 fibroblasts are a well characterized in vitro tool to study PPARγ induced adipocyte differentiation. These cells can be differentiated from fibroblasts into adipocytes by an activation cocktail (0.5 mM IBMX, 1 μg/mL insulin, 0.25 μM dexamethasone) together with the potential PPARγ agonist. Upon differentiation, different parameters such as lipid accumulation and PPARγ target gene expression can be assessed to investigate the PPARγ activating potential of the compounds of interest. […] Rosiglitazone (2 μM) was used as positive control. This was followed by insulin (1 μg/mL) treatment for another 48 h. After this, cells were kept in growth medium for a week to complete the differentiation process and allow intracellular lipid accumulation. Subsequently, the cells were stained with Oil Red O solution to investigate the extent of cytoplasmic lipid droplet accumulation as a measure for cell differentiation.
In addition to mRNA expression, the protein expression levels of the two PPARγ target genes FABP-4 and CD36 in differentiated 3T3-L1 cells after 14 days were investigated. For this, total protein lysates were separated by gel electrophoresis followed by Western Blotting (Figure 3E,F and Supplementary Figures S2A,B).

SMILES | IC50 [1] | IC50 [2] | PPARα EC50 [3] | PPARδ EC50 [4] | IC50 [5] | TNFα induced phosphorylation of PPARγ2 at serine 273 [6] | Lipid accumulation (Oil Red O staining) [7] | PPARγ isoforms γ1 and γ2 protein expression ([8]; 3T3-L1 differentiated with cocktail plus compound) | Protein expression of PPARγ target genes FABP-4 and CD36 ([8]; after 14 days)
O=C(Nc1cccc2c(=O)cc(-c3nnn[nH]3)oc12)c1ccc(OCCCCc2ccccc2)cc1 [Pranlukast, pranlukast] | 0.004 µM | 8.86 ± 0.19 µM | i.a. @ 10 μM | i.a. @ 10 μM | 14.1 µM |  |  |  | 
CN(CCOc1ccc(CC2SC(=O)NC2=O)cc1)c1ccccn1 (stereo not drawn) [rosiglitazone] |  |  |  |  |  | inhibited this phosphorylation, although this effect was not significant | strong accumulation of lipid droplets | upregulated the protein levels | upregulated the expression of all target genes investigated with high potency
